Legend:
Assay type in all cases: binding
[1] = target: kinases (KINOMEscan panel) (Homo sapiens, UniProt P00533, DEL746-750); conditions: NEW KINOMEscan
[2] = target: kinases (KINOMEscan panel) (Homo sapiens, UniProt P36894); conditions: kinase BMPR1A; NEW KINOMEscan
[3] = target: kinases (KINOMEscan panel) (Homo sapiens, UniProt Q07002); conditions: kinase CDK18; NEW KINOMEscan
[4] = target: T1, kinases (KINOMEscan panel) (Homo sapiens, UniProt Q6XUX3); conditions: DSTYK; NEW KINOMEscan
T1 sequence (Q6XUX3 1-929): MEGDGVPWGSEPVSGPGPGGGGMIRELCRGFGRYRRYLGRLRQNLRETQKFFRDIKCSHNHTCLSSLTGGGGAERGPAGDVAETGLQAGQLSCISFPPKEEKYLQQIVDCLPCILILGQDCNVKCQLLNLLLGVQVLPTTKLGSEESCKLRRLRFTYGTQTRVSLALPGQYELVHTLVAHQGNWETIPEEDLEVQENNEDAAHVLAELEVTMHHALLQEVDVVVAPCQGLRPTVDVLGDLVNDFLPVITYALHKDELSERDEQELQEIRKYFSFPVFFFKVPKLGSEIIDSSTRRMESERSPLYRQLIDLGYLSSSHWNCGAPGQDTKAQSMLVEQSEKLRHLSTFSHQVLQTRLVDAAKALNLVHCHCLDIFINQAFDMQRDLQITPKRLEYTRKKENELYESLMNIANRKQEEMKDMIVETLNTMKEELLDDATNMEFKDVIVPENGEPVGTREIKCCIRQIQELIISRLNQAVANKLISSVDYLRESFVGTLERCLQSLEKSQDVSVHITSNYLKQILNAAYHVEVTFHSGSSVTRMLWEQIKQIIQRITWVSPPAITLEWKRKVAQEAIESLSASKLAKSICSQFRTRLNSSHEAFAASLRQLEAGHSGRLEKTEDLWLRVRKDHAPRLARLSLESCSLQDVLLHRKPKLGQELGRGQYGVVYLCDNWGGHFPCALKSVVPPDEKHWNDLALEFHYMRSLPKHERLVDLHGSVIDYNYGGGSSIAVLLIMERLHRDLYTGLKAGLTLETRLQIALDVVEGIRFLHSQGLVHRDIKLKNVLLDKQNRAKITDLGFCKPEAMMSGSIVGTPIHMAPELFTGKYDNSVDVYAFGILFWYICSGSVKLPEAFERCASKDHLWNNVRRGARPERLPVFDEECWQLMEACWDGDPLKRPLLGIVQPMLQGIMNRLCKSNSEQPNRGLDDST

[5] = target: kinases (KINOMEscan panel) (Homo sapiens, UniProt Q86UE8); conditions: kinase TLK2; NEW KINOMEscan
[6] = target: T2, kinases (KINOMEscan panel) (Homo sapiens, UniProt Q9NRP7); conditions: STK36; NEW KINOMEscan
T2 sequence (Q9NRP7 1-1315): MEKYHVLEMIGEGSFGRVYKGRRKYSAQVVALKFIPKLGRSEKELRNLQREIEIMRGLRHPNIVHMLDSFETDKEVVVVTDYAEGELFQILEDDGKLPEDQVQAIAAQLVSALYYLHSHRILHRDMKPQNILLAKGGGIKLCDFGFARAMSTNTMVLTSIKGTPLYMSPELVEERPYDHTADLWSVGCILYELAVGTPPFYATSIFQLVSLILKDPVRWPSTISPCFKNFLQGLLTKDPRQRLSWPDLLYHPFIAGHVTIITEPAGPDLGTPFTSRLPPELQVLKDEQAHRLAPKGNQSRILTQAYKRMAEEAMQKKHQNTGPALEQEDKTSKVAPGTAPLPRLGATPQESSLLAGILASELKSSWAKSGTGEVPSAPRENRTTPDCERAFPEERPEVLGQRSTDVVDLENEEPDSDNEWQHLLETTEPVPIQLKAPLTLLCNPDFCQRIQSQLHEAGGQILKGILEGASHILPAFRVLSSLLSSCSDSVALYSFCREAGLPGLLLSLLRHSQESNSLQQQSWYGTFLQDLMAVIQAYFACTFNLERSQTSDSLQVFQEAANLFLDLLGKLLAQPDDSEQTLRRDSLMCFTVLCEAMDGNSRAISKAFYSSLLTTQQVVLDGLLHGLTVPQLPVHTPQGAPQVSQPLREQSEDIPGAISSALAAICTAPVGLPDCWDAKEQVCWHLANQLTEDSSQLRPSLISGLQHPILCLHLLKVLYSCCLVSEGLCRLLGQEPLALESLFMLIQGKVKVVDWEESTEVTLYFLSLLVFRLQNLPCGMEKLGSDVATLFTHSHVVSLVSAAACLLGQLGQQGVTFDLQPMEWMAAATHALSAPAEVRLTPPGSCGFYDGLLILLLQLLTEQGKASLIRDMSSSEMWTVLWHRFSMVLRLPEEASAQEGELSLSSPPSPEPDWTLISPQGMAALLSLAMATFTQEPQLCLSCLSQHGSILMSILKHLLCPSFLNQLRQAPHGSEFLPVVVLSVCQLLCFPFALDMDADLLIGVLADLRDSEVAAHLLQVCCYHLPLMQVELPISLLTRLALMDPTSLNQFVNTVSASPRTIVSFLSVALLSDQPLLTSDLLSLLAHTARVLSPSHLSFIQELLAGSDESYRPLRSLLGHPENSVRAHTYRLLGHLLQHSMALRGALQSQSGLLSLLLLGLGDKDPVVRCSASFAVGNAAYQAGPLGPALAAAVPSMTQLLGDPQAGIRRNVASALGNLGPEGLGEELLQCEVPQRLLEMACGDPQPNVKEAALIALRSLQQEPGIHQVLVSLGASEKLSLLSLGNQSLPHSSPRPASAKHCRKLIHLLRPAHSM

Chain of kinases (KINOMEscan panel) (Homo sapiens, UniProt Q07002) (Q07002 whole entry): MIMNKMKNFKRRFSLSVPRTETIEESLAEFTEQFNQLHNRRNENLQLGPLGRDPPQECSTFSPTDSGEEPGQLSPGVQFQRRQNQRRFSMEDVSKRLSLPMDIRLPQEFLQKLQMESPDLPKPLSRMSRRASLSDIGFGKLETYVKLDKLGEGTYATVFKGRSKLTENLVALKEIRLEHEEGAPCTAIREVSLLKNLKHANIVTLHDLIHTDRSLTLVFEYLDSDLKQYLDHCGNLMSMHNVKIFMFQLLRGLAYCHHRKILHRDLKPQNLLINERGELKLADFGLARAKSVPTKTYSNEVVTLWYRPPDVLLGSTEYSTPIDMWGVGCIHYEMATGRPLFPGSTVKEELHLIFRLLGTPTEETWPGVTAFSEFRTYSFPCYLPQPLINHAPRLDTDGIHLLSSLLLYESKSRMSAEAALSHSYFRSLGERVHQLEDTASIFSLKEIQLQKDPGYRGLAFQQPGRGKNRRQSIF
Chain of kinases (KINOMEscan panel) (Homo sapiens, UniProt Q86UE8) (Q86UE8 whole entry): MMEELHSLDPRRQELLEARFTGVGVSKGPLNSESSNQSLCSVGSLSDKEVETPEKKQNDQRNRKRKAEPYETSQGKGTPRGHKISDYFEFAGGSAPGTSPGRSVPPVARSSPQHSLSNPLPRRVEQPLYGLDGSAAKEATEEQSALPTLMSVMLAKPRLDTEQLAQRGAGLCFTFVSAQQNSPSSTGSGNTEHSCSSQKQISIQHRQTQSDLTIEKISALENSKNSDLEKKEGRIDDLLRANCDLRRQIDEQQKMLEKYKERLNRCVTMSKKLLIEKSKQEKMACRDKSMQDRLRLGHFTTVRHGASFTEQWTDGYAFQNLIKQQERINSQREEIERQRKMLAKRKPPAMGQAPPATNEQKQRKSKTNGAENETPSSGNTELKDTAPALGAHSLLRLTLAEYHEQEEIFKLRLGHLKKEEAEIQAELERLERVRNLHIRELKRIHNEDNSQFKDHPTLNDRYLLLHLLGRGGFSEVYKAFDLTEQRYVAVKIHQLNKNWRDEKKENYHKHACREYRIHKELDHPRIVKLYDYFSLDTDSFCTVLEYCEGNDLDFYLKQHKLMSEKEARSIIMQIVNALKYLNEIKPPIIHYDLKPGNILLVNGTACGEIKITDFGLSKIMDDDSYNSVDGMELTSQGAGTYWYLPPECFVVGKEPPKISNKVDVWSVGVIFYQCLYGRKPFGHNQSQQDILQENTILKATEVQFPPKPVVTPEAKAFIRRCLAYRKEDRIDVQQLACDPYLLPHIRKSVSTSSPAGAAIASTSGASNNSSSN
Chain of kinases (KINOMEscan panel) (Homo sapiens, UniProt P36894) (P36894 24-532): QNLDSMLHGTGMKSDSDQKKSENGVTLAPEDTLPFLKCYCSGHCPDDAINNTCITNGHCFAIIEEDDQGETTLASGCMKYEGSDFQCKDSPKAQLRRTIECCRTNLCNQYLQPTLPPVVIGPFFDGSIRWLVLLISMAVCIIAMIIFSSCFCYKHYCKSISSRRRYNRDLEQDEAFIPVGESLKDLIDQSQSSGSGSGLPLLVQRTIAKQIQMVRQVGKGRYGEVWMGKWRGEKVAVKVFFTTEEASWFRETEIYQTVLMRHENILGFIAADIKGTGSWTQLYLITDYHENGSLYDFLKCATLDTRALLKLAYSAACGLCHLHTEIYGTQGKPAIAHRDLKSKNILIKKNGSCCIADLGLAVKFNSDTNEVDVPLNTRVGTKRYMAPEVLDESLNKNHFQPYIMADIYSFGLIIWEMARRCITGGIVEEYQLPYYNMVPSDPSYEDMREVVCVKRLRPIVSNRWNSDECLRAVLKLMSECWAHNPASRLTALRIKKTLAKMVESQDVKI
Chain of kinases (KINOMEscan panel) (Homo sapiens, UniProt P00533, DEL746-750) (P00533 with tags, fused parts or gaps DEL746-750): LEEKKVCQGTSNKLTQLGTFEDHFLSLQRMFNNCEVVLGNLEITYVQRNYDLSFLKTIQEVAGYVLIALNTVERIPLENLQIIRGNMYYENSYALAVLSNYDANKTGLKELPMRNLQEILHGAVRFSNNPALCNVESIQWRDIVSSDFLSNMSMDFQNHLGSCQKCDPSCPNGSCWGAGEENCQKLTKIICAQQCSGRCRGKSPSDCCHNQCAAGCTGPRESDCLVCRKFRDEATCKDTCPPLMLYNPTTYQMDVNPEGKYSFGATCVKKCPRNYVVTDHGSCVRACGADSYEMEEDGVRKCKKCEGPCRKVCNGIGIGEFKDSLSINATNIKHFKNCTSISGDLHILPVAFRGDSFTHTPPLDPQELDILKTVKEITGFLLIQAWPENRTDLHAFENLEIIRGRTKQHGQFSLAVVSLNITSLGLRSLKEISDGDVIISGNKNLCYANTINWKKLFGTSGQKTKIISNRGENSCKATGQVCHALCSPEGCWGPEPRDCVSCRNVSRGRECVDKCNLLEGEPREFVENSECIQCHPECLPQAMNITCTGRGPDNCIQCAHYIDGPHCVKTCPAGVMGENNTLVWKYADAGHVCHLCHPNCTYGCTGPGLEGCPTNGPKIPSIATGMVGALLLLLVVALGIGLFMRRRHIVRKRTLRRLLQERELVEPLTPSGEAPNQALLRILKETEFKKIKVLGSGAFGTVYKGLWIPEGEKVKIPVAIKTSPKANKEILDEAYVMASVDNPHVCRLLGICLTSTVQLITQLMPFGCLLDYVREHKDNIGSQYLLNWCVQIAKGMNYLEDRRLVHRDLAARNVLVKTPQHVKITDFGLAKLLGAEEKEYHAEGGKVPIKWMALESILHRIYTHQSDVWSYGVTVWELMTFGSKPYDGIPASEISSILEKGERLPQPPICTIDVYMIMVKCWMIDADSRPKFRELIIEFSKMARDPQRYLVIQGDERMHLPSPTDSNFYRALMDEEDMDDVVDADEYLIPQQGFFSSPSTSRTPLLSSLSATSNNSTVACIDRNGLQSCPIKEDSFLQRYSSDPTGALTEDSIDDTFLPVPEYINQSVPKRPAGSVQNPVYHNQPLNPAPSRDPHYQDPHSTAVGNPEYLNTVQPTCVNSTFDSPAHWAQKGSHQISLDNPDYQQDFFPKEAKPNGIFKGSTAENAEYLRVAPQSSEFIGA

Row | SMILES | KINOMEscan EGFR(E746-A750del) [1] | KINOMEscan BMPR1A [2] | KINOMEscan CDK18 [3] | KINOMEscan DSTYK [4] | KINOMEscan TLK2 [5] | KINOMEscan STK36 [6]
1 | Cc1cccc(-c2nc(Nc3ccc4nn(C)cc4c3)c3ccccc3n2)n1 [NK167] | 15 | 13 | 0 | 0 | 0 | 0
2 | Cc1cccc(-c2nc(N(C)c3ccc4ncsc4c3)c3ccccc3n2)n1 [NK-161] | 21 | 4 | 0 | 0 | 0 | 7

From paper PMC9851200, “Multiparameter phenotypic screening for endogenous TFEB and TFE3 translocation identifies novel chemical series modulating lysosome function” (Autophagy, 2022)
